Assay [1] in a line: Immunosuppressant-like activity in an in vitro splenocyte mitogenesis assay at concentration up to 10 uM; ND means not detected. In kind it is functional.
Assay [2] concerns the target T1, Peptidyl-prolyl cis-trans isomerase FKBP1A (Homo sapiens, UniProt P62942). In words: Compound was tested for inhibitory activity against FK506 binding protein 12 (FKBP12). The note with it: read-out: Ki app.
Assay [3] concerns the target T1, Peptidyl-prolyl cis-trans isomerase FKBP1A. The experiment in a line: Compound was tested for inhibitory activity against FK506 binding protein 12 (FKBP12); Value ranges from 190-900 nM. The note with it: read-out: Ki app.
Assay [4] is described as follows: Immunosuppressant-like activity in an in vitro splenocyte mitogenesis assay at concentration up to 10 uM. In kind it is functional.

Each structure is given as a SMILES string.

The record followed here is ChEMBL document CHEMBL1127991, “Design, synthesis and evaluation of dual domain FKBP ligands” (Bioorg Med Chem Lett, 1994).

T1 sequence (P62942 whole entry): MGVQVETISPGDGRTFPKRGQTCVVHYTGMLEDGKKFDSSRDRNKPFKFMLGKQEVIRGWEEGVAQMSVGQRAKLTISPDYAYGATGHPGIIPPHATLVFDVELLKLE

In general, IC50 refers to the point on the concentration scale where inhibition reaches its midpoint. A low value points to inhibition by little substance. With `CCC(C)(C)C(=O)C(=O)N1CCCC[C@H]1C(=O)O[C@H](CCc1ccccc1)c1cccc(C(=O)c2ccccc2)c1`, the half-inhibitory concentration (IC50) result in assay [1] is “Not detected”. Also, in assay [2], the Ki is 5 nM.
Turning to `CCC(C)(C)C(=O)C(=O)N1CCCC[C@H]1C(=O)O[C@H](CCc1ccccc1)C(C)(C)/C=C/C(=O)c1ccccc1`, in assay [3], the Ki turned out to be 190 nM. In assay [1], the 50% inhibitory concentration (IC50) entry is “Not detected”.
The corresponding values for `CCCC(CCC)C(=O)/C=C/C(C)(C)[C@@H](CCc1ccccc1)OC(=O)[C@@H]1CCCCN1C(=O)C(=O)C(C)(C)CC` are 190 nM and “Not detected”.
For the molecule `C=CC[C@@H]1/C=C(\C)C[C@H](C)C(=O)OCCCC(C)(C)C(=O)C(=O)N2CCCC[C@H]2C(=O)OCCCOC1=O`, the Ki in assay [2] worked out at 400 nM.
As to `C=CC[C@@H]1/C=C(\C)C[C@H](C)C(=O)OCC(C)(C)C(=O)C(=O)N2CCCC[C@H]2C(=O)O[C@H](CCc2ccccc2)[C@H](C)COC1=O`, the Ki in assay [2] was 6000 nM.
Turning to `CCC(C)(C)C(=O)C(=O)N1CCCC[C@H]1C(=O)O[C@H](CCc1ccccc1)C(C)(C)/C=C/C(=O)C1CCCCC1`, the half-maximal inhibitory concentration (IC50) result in assay [1] is “Not detected”. Also, the Ki in assay [2] was 340 nM.
With `CC1(C)COC(=O)CCCCCCCCC(=O)c2cccc(c2)C(CCc2ccccc2)OC(=O)[C@@H]2CCCCN2C(=O)C1=O` (stereo partly drawn), the Ki in assay [2] was 20 nM.
Same read-out and setting: in the case of `CC1(C)COC(=O)CCCCC(=O)/C=C/C(C)(C)[C@@H](CCc2ccccc2)OC(=O)[C@@H]2CCCCN2C(=O)C1=O` it was 175 nM.
Take `CC1(C)COC(=O)CCCCC(=O)CCC(C)(C)[C@@H](CCc2ccccc2)OC(=O)[C@@H]2CCCCN2C(=O)C1=O`: the Ki in assay [2] was found to be 25 nM.
As for `C=CCN(CC=C)C(=O)c1cccc([C@@H](CCc2ccccc2)OC(=O)[C@@H]2CCCCN2C(=O)C(=O)C(C)(C)CC)c1`, the IC50 entry in assay [1] is recorded as “Not detected”. For the same molecule, in assay [2], the Ki turned out to be 5 nM.
As to `C=CC[C@@H]1/C=C(\C)C[C@H](C)C(=O)OCC(C)(C)C(=O)C(=O)N2CCCC[C@H]2C(=O)OCCCOC1=O`, in assay [2], the Ki worked out at 130 nM.
Take `C=CC[C@@H]1/C=C(\C)C[C@H](C)C(=O)OCCCC(C)(C)C(=O)C(=O)N2CCCC[C@H]2C(=O)O[C@H](CCc2ccccc2)[C@H](C)COC1=O`: the Ki in assay [2] is over 5000 nM.
`C=CC[C@@H]1/C=C(\C)C[C@H](C)C[C@H](OC)[C@H]2O[C@@](O)(C(=O)C(=O)N3CCCC[C@H]3C(=O)O[C@H](/C(C)=C/[C@@H]3CC[C@@H](O)[C@H](OC)C3)[C@H](C)[C@@H](O)CC1=O)[C@H](C)C[C@@H]2OC` [TACROLIMUS ANHYDROUS] registered an IC50 in assay [4] of 1 nM.
